IC50 and GI50 data for 17 compounds are collected here from patent US12622909B2, “Allosteric EGFR inhibitors and methods of use thereof” (Dana-Farber Cancer Institute, Inc., priority 2019, dated 2026).

Like-named read-outs stand apart in the source and are kept apart here.

In one assay the target is EGFR L858R (Homo sapiens, UniProt P00533, L858R). Put plainly: HTRF-based EGFR biochemical assay (L858R). As to conditions: 100 μM ATP, enzyme 0.1 nM. As for the experimental part:
(§1) EGFR biochemical activity measurements were carried out using the homogeneous time-resolved fluorescence (HTRF) assay (Cisbio). Inhibitors and DMSO normalizations were first dispensed to empty black low-volume 384-well plates (Corning) with D300 digital liquid dispenser (HP). All reactions were carried out at room temperature and solutions were added to plates with a Multidrop Combi Reagent Dispenser (ThermoFisher). The reaction mixture (10 μL final volume) contained 1 μM tyrosine kinase peptide-biotin substrate and mutant EGFR in a reaction buffer (50 mM HEPES pH 7.0, 5 mM MgCl2, 1 mM MnCl2, 0.01% BSA, 2 mM TCEP, 0.1 mM NaVO4). […] Enzyme reaction solution (2× concentrations, 5 μL) was added to 384-well plates containing compounds and incubated for 30 mins. Enzyme reactions were initiated with the addition of 5 μL of ATP to a final concentration of 100 μM and reacted for 20 mins. Reactions were quenched with the addition of 10 μL of phospho-tyrosine antibody-Europium(III) cryptate (1-to-180 volume ratio) and Streptavidin-XL665 (46.7 nM) in EDTA-containing detection buffer, then incubated at room temperature for 1 hour, and read with a PHERAstar plate reader (excitation=337 nm, emission=620 nm and 665 nm).
In general terms: In TR-FRET formats the signal depends on donor and acceptor labels being close together.

Assay [1] deals with EGFR L858R/T790M mutant Ba/F3 cells (Homo sapiens, UniProt P00533, T790M/L858R, cells depend on it). Put plainly: Ba/F3 cell proliferation (Cell Titer Glo). As to conditions: 72 hours. The assay is classed as cell-based, murine. The source says:
All cell lines were maintained in RPMI 1640 (Cellgro; Mediatech Inc., Herndon, CA) supplemented with 10% FBS, 100 units/mL penicillin, 100 units/mL streptomycin. The EGFR I941R mutation was introduced via site directed mutagenesis using the Quick Change Site-Directed Mutagenesis kit (Stratagene; La Jolla, CA) according to the manufacturer's instructions. All constructs were confirmed by DNA sequencing. The constructs were shuttled into the retroviral vector JP1540 using the Cre-recombination system (Agilent Technologies, Santa Clara, CA). Ba/F3 cells were then infected with retrovirus per standard protocols, as described previously (Zhou, et al, Nature 2009). Stable clones were obtained by selection in puromycin (2 μg/ml).
Growth and inhibition of growth was assessed by the Cell Titer Glo assay (Promega, Madison, WI) and was performed according to the manufacturer's instructions. The Cell Titer Glo assay is a luminescence-based method used to determine the number of viable cells based on quantitation of the ATP present, which is directly proportional to the amount of metabolically active cells present. […] All experimental points were set up in triplicates in 384-well plates and all experiments were repeated at least three times. […] The curves were fitted using a non-linear regression model with a sigmoidal dose response.

Another assay addresses EGFR L858R/T790M (Homo sapiens, UniProt P00533, L858R/T790M). Put plainly: HTRF-based EGFR biochemical assay (L858R/T790M). To be noted: 100 μM ATP, enzyme 0.02 nM. As for the experimental part:
as §1, with “mins.” for “mins. Reactions were quenched with the addition of 10 μL of phospho-tyrosine antibody-Europium(III) cryptate (1-to-180 volume ratio) and Streptavidin-XL665 (46.7 nM) in EDTA-containing detection buffer, then incubated at room temperature for 1 hour, and read with a PHERAstar plate reader (excitation=337 nm, emission=620 nm and 665 nm).”

The mark [2] stands for this setting: in combination with 1 μg/ml cetuximab, read-out: Cell IC50 BaF3 L858R/T790M compound + cetuximab.
Where [3] appears, read: single agent, read-out: Cell IC50 EGFR BaF3 L858R/T790M.

Chain of EGFR L858R/T790M (P00533 25-1210 T790M/L858R): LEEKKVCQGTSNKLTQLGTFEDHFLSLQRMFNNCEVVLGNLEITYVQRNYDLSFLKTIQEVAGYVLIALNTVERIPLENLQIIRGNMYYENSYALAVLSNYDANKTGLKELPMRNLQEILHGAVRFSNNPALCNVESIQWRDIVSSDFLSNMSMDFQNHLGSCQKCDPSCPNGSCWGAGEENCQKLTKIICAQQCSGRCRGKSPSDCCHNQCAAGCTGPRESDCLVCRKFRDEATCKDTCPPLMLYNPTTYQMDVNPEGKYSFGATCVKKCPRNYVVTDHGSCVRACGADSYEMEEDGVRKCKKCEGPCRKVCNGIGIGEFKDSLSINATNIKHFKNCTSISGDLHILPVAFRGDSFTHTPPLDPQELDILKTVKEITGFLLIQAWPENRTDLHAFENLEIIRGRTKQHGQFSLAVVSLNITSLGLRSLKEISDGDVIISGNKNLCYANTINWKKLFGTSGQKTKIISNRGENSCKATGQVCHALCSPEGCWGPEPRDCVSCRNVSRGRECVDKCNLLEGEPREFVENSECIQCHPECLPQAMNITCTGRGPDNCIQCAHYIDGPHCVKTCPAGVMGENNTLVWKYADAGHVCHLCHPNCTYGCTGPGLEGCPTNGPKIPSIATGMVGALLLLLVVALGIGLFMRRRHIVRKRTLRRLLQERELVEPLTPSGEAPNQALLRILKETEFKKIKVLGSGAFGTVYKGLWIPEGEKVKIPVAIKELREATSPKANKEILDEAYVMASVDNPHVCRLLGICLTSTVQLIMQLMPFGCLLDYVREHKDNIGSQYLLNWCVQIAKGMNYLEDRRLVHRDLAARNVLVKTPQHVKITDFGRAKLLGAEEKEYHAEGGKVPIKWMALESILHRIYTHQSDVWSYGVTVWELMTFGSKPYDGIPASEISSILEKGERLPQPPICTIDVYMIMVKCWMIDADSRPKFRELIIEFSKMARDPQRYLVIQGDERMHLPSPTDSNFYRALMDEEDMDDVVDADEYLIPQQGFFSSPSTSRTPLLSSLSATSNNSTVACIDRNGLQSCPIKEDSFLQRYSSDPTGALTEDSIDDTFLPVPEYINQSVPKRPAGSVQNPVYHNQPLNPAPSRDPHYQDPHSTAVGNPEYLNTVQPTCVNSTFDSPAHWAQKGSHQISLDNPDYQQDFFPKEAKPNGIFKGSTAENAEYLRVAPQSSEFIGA
Chain of EGFR L858R/T790M mutant Ba/F3 cells (P00533 whole entry T790M/L858R): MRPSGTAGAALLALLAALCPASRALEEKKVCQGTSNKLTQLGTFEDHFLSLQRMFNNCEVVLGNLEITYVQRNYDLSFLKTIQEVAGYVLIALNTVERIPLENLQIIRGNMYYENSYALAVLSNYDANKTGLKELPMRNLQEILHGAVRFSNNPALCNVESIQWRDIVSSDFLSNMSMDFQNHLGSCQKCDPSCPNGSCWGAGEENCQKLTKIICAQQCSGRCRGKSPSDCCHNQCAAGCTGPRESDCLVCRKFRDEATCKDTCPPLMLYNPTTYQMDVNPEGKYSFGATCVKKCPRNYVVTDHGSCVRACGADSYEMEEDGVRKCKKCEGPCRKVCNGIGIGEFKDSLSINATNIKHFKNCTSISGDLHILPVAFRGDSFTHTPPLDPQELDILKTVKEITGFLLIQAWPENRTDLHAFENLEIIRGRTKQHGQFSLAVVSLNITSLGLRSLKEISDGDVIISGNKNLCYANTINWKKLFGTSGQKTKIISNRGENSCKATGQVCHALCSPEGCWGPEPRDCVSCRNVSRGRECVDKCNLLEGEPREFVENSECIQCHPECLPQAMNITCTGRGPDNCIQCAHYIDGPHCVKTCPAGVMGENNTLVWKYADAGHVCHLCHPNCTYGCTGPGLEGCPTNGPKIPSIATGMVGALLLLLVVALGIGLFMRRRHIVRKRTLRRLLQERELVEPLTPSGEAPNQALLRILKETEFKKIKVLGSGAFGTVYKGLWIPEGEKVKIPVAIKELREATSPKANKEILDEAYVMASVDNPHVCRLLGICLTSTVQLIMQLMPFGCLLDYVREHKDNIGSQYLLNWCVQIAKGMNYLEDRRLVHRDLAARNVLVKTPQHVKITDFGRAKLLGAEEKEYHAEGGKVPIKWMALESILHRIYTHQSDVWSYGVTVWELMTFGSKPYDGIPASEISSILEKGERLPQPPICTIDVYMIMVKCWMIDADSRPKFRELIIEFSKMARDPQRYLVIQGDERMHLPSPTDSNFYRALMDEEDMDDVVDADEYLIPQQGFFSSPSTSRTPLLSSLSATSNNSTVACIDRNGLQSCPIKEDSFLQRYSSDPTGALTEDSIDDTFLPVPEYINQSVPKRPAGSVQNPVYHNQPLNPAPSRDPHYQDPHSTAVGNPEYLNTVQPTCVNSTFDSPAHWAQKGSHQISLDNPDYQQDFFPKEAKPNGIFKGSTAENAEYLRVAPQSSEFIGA
Chain of EGFR L858R (P00533 25-1210 L858R): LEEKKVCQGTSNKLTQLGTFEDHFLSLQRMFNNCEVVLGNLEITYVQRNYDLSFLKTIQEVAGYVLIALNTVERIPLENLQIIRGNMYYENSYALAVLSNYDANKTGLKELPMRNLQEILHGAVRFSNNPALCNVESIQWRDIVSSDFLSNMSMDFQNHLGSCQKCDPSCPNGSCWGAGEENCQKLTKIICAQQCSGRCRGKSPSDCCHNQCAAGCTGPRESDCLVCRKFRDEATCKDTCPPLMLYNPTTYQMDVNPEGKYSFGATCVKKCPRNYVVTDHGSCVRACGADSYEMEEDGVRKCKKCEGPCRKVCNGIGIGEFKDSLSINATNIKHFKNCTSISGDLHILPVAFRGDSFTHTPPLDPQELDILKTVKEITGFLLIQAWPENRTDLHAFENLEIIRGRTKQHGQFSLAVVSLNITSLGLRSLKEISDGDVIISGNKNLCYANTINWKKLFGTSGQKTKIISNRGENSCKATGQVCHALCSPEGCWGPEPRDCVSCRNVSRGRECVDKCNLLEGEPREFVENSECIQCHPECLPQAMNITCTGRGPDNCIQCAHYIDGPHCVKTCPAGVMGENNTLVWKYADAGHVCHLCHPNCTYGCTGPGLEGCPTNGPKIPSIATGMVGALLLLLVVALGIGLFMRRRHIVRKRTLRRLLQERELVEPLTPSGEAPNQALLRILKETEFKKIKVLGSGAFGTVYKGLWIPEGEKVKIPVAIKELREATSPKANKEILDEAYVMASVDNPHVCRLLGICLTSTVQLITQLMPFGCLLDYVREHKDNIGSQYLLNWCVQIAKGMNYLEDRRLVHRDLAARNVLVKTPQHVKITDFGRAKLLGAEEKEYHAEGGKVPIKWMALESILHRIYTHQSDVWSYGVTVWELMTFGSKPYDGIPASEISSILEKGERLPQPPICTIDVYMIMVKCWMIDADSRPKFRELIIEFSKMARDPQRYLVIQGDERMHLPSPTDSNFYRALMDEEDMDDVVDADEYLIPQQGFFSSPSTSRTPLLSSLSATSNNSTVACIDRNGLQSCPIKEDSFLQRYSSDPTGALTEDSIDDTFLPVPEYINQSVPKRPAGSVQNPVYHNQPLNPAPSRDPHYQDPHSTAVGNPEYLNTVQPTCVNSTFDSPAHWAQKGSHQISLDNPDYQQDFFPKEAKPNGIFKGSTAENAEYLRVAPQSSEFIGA

By IC50 is commonly meant the point on the concentration scale where inhibition reaches its midpoint. Turning to `CN1CCN(c2ccc(-c3ccc4ccn(C(C(=O)Nc5nccs5)c5ccccc5)c(=O)c4c3)cc2)CC1` (centres unmarked) [Compound 019, 2-(7-(4-(4-Methylpiperazin-1-yl)-phenyl)-1-oxoisoquinolin-2(1H)-yl)-2-phenyl-N-(thiazol-2-yl)acetamide], the IC50 worked out at 0.035 µM against EGFR L858R and 0.005 µM at EGFR L858R/T790M. Moreover, the GI50 in assay [1] (setting [2]) came to 0.044 µM; in assay [1] (setting [3]), 1.85 µM.
In the same order, the values of `CN1CCC(c2ccc(-c3cc4ncn(C(C(=O)Nc5nccs5)c5ccccc5)c(=O)c4cc3F)cc2)CC1` (centres unmarked) [Compound 020, 2-(6-Fluoro-7-(4-(1-methylpiperidin-4-yl)phenyl)-4-oxoquinazolin-3(4H)-yl)-2-phenyl-N-(thiazol-2-yl)acetamide] are 0.026 µM, 0.006 µM, 0.78 µM and 1.42 µM.
In the same order, the values of `CN1CCN(c2ccc(-c3cc4ncn(C(C(=O)Nc5nccs5)c5ccccc5)c(=O)c4cc3F)cc2)CC1` (centres unmarked) [Compound 021, 2-(6-Fluoro-7-(4-(4-methylpiperazin-1-yl)phenyl)-4-oxoquinazolin-3(4H)-yl)-2-phenyl-N-(thiazol-2-yl)acetamide] are 0.103 µM, 0.016 µM, 0.97 µM and 2.9 µM.
In the same order, the values of `CN1CCC(c2ccc(-c3ccc4c(=O)n(C(C(=O)Nc5nccs5)c5ccccc5)cc(F)c4c3)cc2)CC1` (centres unmarked) [Compound 022, 2-(4-Fluoro-6-(4-(1-methylpiperidin-4-yl)phenyl)-1-oxoisoquinolin-2(1H)-yl)-2-phenyl-N-(thiazol-2-yl)acetamide] are 0.002 µM, 0.0006 µM, 0.02 µM and 1.26 µM.
Take `CN1CCN(c2ccc(-c3ccc4c(=O)n(C(C(=O)Nc5nccs5)c5ccccc5)cc(F)c4c3)cc2)CC1` (centres unmarked) [Compound 023, 2-(4-Fluoro-6-(4-(4-methylpiperazin-1-yl)phenyl)-1-oxoisoquinolin-2(1H)-yl)-2-phenyl-N-(thiazol-2-yl)-acetamide]: the IC50 came out at 0.007 µM at EGFR L858R and 0.003 µM against EGFR L858R/T790M. In addition, the GI50 in assay [1] (setting [2]) was 0.11 µM; in assay [1] (setting [3]) it was 2.41 µM.
On to `CN1CCC(c2ccc(-c3ccc4ccn(C(C(=O)Nc5nccs5)c5cccc(F)c5)c(=O)c4c3)cc2)CC1` (centres unmarked) [Compound 024, 2-(3-Fluorophenyl)-2-(7-(4-(1-methylpiperidin-4-yl)phenyl)-1-oxoisoquinolin-2(1H)-yl)-N-(thiazol-2-yl)-acetamide], for which the IC50 came out at 0.007 µM on EGFR L858R and 0.001 µM on EGFR L858R/T790M. For the same compound, the figures for the GI50 in assay [1] (setting [2]) and in assay [1] (setting [3]) were 0.09 µM and 1.77 µM, respectively.
For `CN1CCC(c2ccc(-c3ccc4c(=O)n(C(C(=O)Nc5nccs5)c5cccc(F)c5)ccc4c3)cc2)CC1` (centres unmarked) [Compound 025, 2-(3-Fluorophenyl)-2-(6-(4-(1-methyl-piperidin-4-yl)phenyl)-1-oxo-isoquinolin-2(1H)-yl)-N-(thiazol-2-yl)-acetamide], the IC50 is 0.005 µM against EGFR L858R and 0.003 µM against EGFR L858R/T790M. Besides, the GI50 came out at 0.02 µM in assay [1] (setting [2]) and 0.9 µM in assay [1] (setting [3]).
As for `CN1CCC(c2ccc(-c3ccc4c(=O)n(C(C(=O)Nc5nccs5)c5ccccc5)ncc4c3)cc2)CC1` (centres unmarked) [Compound 026, 2-(6-(4-(1-Methylpiperidin-4-yl)-phenyl)-1-oxophthalazin-2(1H)-yl)-2-phenyl-N-(thiazol-2-yl)acetamide], the IC50 on EGFR L858R amounted to 0.067 µM; against EGFR L858R/T790M, 0.01 µM. Also, the values for the GI50 in assay [1] (setting [2]) and in assay [1] (setting [3]) were 0.56 µM and 1.22 µM, respectively.
In the same order, the values of `CN1CCN(c2ccc(-c3ccc4c(=O)n(C(C(=O)Nc5nccs5)c5ccccc5)ncc4c3)cc2)CC1` (centres unmarked) [Compound 027, 2-(6-(4-(4-Methylpiperazin-1-yl)-phenyl)-1-oxophthalazin-2(1H)-yl)-2-phenyl-N-(thiazol-2-yl)acetamide] are 0.209 µM, 0.018 µM, 1.7 µM and 3.46 µM.
Regarding `CN1CCC(c2ccc(-c3ccc4c(=O)n(C(C(=O)Nc5nccs5)c5cccc(F)c5)cnc4c3)cc2)CC1` (centres unmarked) [Compound 028, 2-(3-Fluorophenyl)-2-(7-(4-(1-methyl-piperidin-4-yl)phenyl)-4-oxo-quinazolin-3(4H)-yl)-N-(thiazol-2-yl)-acetamide], the figures for the IC50 on EGFR L858R and at EGFR L858R/T790M were 0.021 µM and 0.007 µM, respectively. In addition, the GI50 was found to be 0.088 µM in assay [1] (setting [2]) and 1.58 µM in assay [1] (setting [3]).
Regarding `CN1CCN(c2ccc(-c3ccc4c(=O)n(C(C(=O)Nc5nccs5)c5cccc(F)c5)cnc4c3)cc2)CC1` (centres unmarked) [Compound 029, 2-(3-Fluorophenyl)-2-(7-(4-(4-methyl-piperazin-1-yl)phenyl)-4-oxo-quinazolin-3(4H)-yl)-N-(thiazol-2-yl)-acetamide], the IC50 amounted to 0.091 µM against EGFR L858R and 0.018 µM on EGFR L858R/T790M. The GI50 in assay [1] (setting [2]) amounted to 0.56 µM; in assay [1] (setting [3]) it was 3.45 µM.
The matching figures for `CN1CCC(c2ccc(-c3ccc4ncn(C(C(=O)Nc5nccs5)c5cccc(F)c5)c(=O)c4c3)cc2)CC1` (centres unmarked) [Compound 030, 2-(3-Fluorophenyl)-2-(6-(4-(1-methyl-piperidin-4-yl)phenyl)-4-oxo-quinazolin-3(4H)-yl)-N-(thiazol-2-yl)-acetamide]: 0.007 µM, 0.001 µM, 0.004 µM and 0.8 µM.
As for `CN1CCN(c2ccc(-c3ccc4ncn(C(C(=O)Nc5nccs5)c5cccc(F)c5)c(=O)c4c3)cc2)CC1` (centres unmarked) [Compound 031, 2-(3-Fluorophenyl)-2-(6-(4-(4-methyl-piperazin-1-yl)phenyl)-4-oxo-quinazolin-3(4H)-yl)-N-(thiazol-2-yl)-acetamide], the IC50 on EGFR L858R was found to be 0.002 µM; against EGFR L858R/T790M it was 0.0002 µM. In addition, the values for the GI50 in assay [1] (setting [2]) and in assay [1] (setting [3]) were 0.01 µM and 1.35 µM, respectively.
As to `CN1CCC(c2ccc(-c3ccc4ncn(C(C(=O)Nc5ccccn5)c5cccc(F)c5)c(=O)c4c3)cc2)CC1` (centres unmarked) [Compound 032, 2-(3-Fluorophenyl)-2-(6-(4-(1-methyl-piperidin-4-yl)phenyl)-4-oxo-quinazolin-3(4H)-yl)-N-(pyridin-2-yl)-acetamide], the values for the IC50 against EGFR L858R and against EGFR L858R/T790M were 0.004 µM and 0.0004 µM, respectively. Further, the GI50 in assay [1] (setting [2]) was determined as 0.021 µM; in assay [1] (setting [3]), 1.58 µM.
`CN1CCN(c2ccc(-c3ccc4ncn(C(C(=O)Nc5ccccn5)c5cccc(F)c5)c(=O)c4c3)cc2)CC1` (centres unmarked) [Compound 033, 2-(3-Fluorophenyl)-2-(6-(4-(4-methyl-piperazin-1-yl)phenyl)-4-oxo-quinazolin-3(4H)-yl)-N-(pyridin-2-yl)-acetamide]: the figures for the IC50 against EGFR L858R and on EGFR L858R/T790M were 0.051 µM and 0.002 µM, respectively. The figures for the GI50 in assay [1] (setting [2]) and in assay [1] (setting [3]) were 0.044 µM and 1.55 µM, respectively.
In the same order, the values of `O=C(Nc1ccccn1)C(c1cccc(F)c1)n1cnc2ccc(Br)cc2c1=O` (centres unmarked) [Compound 034, 2-(6-Bromo-4-oxoquinazolin-3(4H)-yl)-2-(3-fluorophenyl)-N-(pyridin-2-yl)acetamide] are greater than 1 µM, 0.018 µM, 1.8 µM and greater than 10 µM.
Regarding `O=C(Nc1nccs1)C(c1ccccc1)n1cc(F)c2ccc(Br)cc2c1=O` (centres unmarked) [Compound 035, 2-(7-Bromo-4-fluoro-1-oxo-isoquinolin-2(1H)-yl)-2-phenyl-N-(thiazol-2-yl)acetamide], the IC50 was found to be 0.101 µM at EGFR L858R and 0.011 µM on EGFR L858R/T790M. The results for the GI50 in assay [1] (setting [2]) and in assay [1] (setting [3]) were 0.35 µM and greater than 10 µM, respectively.
